Two compounds from patent US7622611B2, “Pentafluorosulfanylbenzoylguanidines, process for their preparation, use as a medicament or diagnostic aid, and medicament comprising same” (Sanofi-Aventis Deutschland GmbH, priority 2003, dated 2009) can be followed below.

Data set [1] in a line: In vivo pharmacokinetics, profiling with the "n in one method" in beagle dog. As to conditions: for Volume of distribution: fasting male beagle dog, single i.v. bolus into jugular vein, about 1 mg/kg, both substances given together. The procedure: In vivo pharmacokinetics—profiling with the “n in one method”
The exposure data and the volumes of distribution were determined as characteristic pharmacokinetic data as follows:
The NHE-1 inhibitor of example 1 of the invention and, as reference substance, the known NHE-1 inhibitor cariporide with formula
[drawing 23] were dissolved in an aqueous, slightly acidic medium (water, pH 4, adjusted with 1M hydrochloric acid). The concentration of the aqueous formulation prepared in this way was about 1.5 mg of each substance per 1 g of solution. 10 ml of this formulation were administered as a single bolus by catheter into the jugular vein of a fasting male beagle dog (dose about 1 mg of each substance administered per kg of the dog's body weight). Blood samples were taken by means of a second catheter after 5 min, 15 min, 30 min, 1 h, 2 h, 4 h, 8 h and 24 h, and heparinized plasma was prepared by centrifugation at 1000 G in appropriate plasma tubes.
The plasma samples were worked up and, after an HPLC separation, quantified by MS/MS. The high specificity of this method permitted simultaneous determination of a plurality of substances. The exposures could be calculated using the WinNonlin computer program from the concentration-time plots (see FIG. 1) and compared with the exposure of the known NHE-1 reference substance. Since the various substances were measured in the same animal at the same time, the result was an accurate comparison of the compounds, and a ranking of the volumes of distribution was possible.
FIG. 1: concentration-time plots in the blood plasma of dogs after administration of in each case approx. 1 mg/kg of the compound of example 1 and of cariporide.

A further data set concerns the target T1, human NHE-1 (Homo sapiens, UniProt P19634).
T1 construct: expressed in transfected cells; host or cells: LAP-1 (parental line without endogenous NHE activity), G418 selection
As to the kind of experiment: NHE-1 inhibition, FLIPR assay measuring pHi recovery in transfected cell lines. The format is cell-based. As to conditions: transfected LAP-1 cell line expressing human NHE-1, BCECF pHi recovery, read-out: NHE1 inhibition IC50. The protocol: The inhibitory concentration IC50 for NHE-1 inhibition was determined as follows:
IC50 for NHE-1 inhibition was determined in an FLIPR assay by measurement of the pHi recovery in transfected cell lines which express human NHE-1.
The assay was carried out in an FLIPR (fluorometric imaging plate reader) with black-walled 96-well microtiter plates with clear bases.
The growth medium for the transfected cells (Iscove+10% fetal calf serum) additionally contained G418 as selection antibiotic in order to ensure the presence of the transfected sequences.
The actual assay started with the removal of the growth medium and addition of 100 μl of loading buffer per well (5 μM BCECF-AM [2′,7′-bis(carboxyethyl)-5-(and -6-)carboxyfluorescein, acetoxymethyl ester] in 20 mM NH4Cl, 115 mM choline chloride, 1 mM MgCl2, 1 mM CaCl2, 5 mM KCl, 20 mM HEPES, 5 mM glucose; pH 7.4 [adjusted with KOH]). The cells were then incubated at 37° C. for 20 minutes. This incubation led to loading of the cells with the fluorescent dye whose fluorescence intensity depends on pHi, and with NH4Cl that made the cells slightly alkaline.
The nonfluorescent dye precursor BCECF-AM is, as ester, membrane-permeable. The actual dye BCECF is not membrane-permeable but is liberated inside cells by esterases. […]

The term IC50 denotes the concentration at which inhibition is half-maximal. As usually defined, the melting point is the temperature of the solid-liquid transition.

T1 sequence (P19634 whole entry): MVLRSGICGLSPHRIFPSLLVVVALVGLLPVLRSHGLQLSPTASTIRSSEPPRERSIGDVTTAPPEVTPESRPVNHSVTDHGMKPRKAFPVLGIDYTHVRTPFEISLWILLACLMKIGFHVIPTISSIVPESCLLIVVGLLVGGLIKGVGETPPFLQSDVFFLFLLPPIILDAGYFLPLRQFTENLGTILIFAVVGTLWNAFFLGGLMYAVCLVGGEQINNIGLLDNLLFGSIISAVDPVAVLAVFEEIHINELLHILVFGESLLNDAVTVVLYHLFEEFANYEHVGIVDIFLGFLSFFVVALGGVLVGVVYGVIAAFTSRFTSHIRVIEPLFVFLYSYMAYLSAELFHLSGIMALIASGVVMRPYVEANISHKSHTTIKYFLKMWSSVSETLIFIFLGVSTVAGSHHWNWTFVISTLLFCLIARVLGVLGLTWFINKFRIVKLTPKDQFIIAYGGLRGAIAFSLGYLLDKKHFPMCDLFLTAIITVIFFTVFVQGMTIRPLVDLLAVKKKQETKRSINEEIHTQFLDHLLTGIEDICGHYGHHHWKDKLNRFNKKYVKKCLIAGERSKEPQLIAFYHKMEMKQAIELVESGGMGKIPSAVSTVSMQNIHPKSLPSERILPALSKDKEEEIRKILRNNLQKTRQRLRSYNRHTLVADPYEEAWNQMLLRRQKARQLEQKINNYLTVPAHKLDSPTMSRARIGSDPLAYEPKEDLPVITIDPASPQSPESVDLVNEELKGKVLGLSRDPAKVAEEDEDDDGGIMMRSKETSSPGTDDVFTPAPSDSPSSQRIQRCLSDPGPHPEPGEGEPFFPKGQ

Regarding `CC(C)c1ccc(C(=O)N=C(N)N)cc1S(C)(=O)=O.CS(=O)(=O)O` [cariporide, reference compound], in data set [1] (dog plasma, 24 h after about 1 mg/kg i.v.), the “Detectability in plasma after 24 hours” value is “no longer detectable”. For the same compound, the Volume of distribution in data set [1] was 2.94 l/kg of body weight.
The compound `Cc1cc(S(F)(F)(F)(F)F)c(S(C)(=O)=O)cc1C(=O)N=C(N)N` [Example 1, N-(5-Methanesulfonyl-2-methyl-4-pentafluorosulfanylbenzoyl)guanidine] returned a melting point of 254 to 256 °C. Moreover, the IC50 on human NHE-1 came out at 49 nM. Also, the “Exposure relative to reference substance cariporide (times higher)” value in data set [1] (dog plasma, about 1 mg/kg i.v., from concentration-time plots, FIG. 1) is listed as 2-3 times. The Volume of distribution in data set [1] is on record as 1.67 l/kg of body weight.
